# Assay: Evaluation of conversion rate to active form in buffer solution (Experimental Example 1)
# Format: physicochemical
# Conditions: for Production rate of Alvocidib / Residual rate: 25 umol/L in buffer solution
# Procedure, shortened: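 Conversion to Alvocidib was followed by HPLC over 3 hours at 37° C, with test compounds at 25 umol/L in 50 mM citrate or phosphate buffers spanning pH 5.0–7.4.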
smiles,measurement,setting,value
"CCN(C[C@@H]1CCCCN1)C(=O)Oc1cc(O)c2c(=O)cc(-c3ccccc3Cl)oc2c1[C@H]1CCN(C)C[C@H]1O [Example 1, 2-(2-chlorophenyl)-5-hydroxy-8-[(3S,4R)-3-hydroxy-1-methylpiperidin-4-yl]-4-oxo-4H-1-benzopyran-7-yl ethyl{[(2S)-piperidin-2-yl]methyl}carbamate ditrifluoroacetate]",Efficiency of conversion to Alvocidib,"buffer solution, 37° C.",higher efficiency
same,Production rate of Alvocidib,"pH5.0, 0 hr, 37° C.",0.0%
same,Residual rate,"pH5.0, 0 hr, 37° C.",98.7%
same,Stability in buffer solution at pH 5,"pH 5, 37° C., up to 2 or 3 hours",stable
same,Production rate of Alvocidib,"pH5.0, 0.5 hr, 37° C.",0.4%
same,Residual rate,"pH5.0, 0.5 hr, 37° C.",98.4%
same,Production rate of Alvocidib,"pH5.0, 1 hr, 37° C.",0.7%
same,Residual rate,"pH5.0, 1 hr, 37° C.",98.1%
same,Production rate of Alvocidib,"pH5.0, 2 hr, 37° C.",1.3%
same,Residual rate,"pH5.0, 2 hr, 37° C.",97.4%
same,Production rate of Alvocidib,"pH5.0, 3 hr, 37° C.",1.8%
same,Residual rate,"pH5.0, 3 hr, 37° C.",96.9%
same,Production rate of Alvocidib,"pH5.5, 0 hr, 37° C.",0.0%
same,Residual rate,"pH5.5, 0 hr, 37° C.",98.8%
same,Production rate of Alvocidib,"pH5.5, 0.5 hr, 37° C.",1.0%
same,Residual rate,"pH5.5, 0.5 hr, 37° C.",97.3%
same,Production rate of Alvocidib,"pH5.5, 1 hr, 37° C.",1.8%
same,Residual rate,"pH5.5, 1 hr, 37° C.",97.1%
same,Production rate of Alvocidib,"pH5.5, 2 hr, 37° C.",3.5%
same,Residual rate,"pH5.5, 2 hr, 37° C.",95.3%
same,Production rate of Alvocidib,"pH5.5, 3 hr, 37° C.",5.1%
same,Residual rate,"pH5.5, 3 hr, 37° C.",93.8%
same,Production rate of Alvocidib,"pH6.0, 0 hr, 37° C.",0.0%
same,Residual rate,"pH6.0, 0 hr, 37° C.",99.2%
same,Production rate of Alvocidib,"pH6.0, 0.5 hr, 37° C.",3.3%
same,Residual rate,"pH6.0, 0.5 hr, 37° C.",95.5%
same,Production rate of Alvocidib,"pH6.0, 1 hr, 37° C.",6.3%
same,Residual rate,"pH6.0, 1 hr, 37° C.",92.5%
same,Production rate of Alvocidib,"pH6.0, 2 hr, 37° C.",12.0%
same,Residual rate,"pH6.0, 2 hr, 37° C.",86.8%
same,Production rate of Alvocidib,"pH6.0, 3 hr, 37° C.",17.0%
same,Residual rate,"pH6.0, 3 hr, 37° C.",81.8%
same,Production rate of Alvocidib,"pH6.5, 0 hr, 37° C.",0.0%
same,Residual rate,"pH6.5, 0 hr, 37° C.",98.4%
same,Production rate of Alvocidib,"pH6.5, 0.5 hr, 37° C.",8.7%
same,Residual rate,"pH6.5, 0.5 hr, 37° C.",90.2%
same,Production rate of Alvocidib,"pH6.5, 1 hr, 37° C.",16.4%
same,Residual rate,"pH6.5, 1 hr, 37° C.",82.0%
same,Production rate of Alvocidib,"pH6.5, 2 hr, 37° C.",30.1%
same,Residual rate,"pH6.5, 2 hr, 37° C.",68.4%
same,Production rate of Alvocidib,"pH6.5, 3 hr, 37° C.",40.7%
same,Residual rate,"pH6.5, 3 hr, 37° C.",57.7%
same,Production rate of Alvocidib,"pH7.0, 0 hr, 37° C.",0.0%
same,Residual rate,"pH7.0, 0 hr, 37° C.",98.9%
same,Production rate of Alvocidib,"pH7.0, 0.5 hr, 37° C.",23.2%
same,Residual rate,"pH7.0, 0.5 hr, 37° C.",75.0%
same,Production rate of Alvocidib,"pH7.0, 1 hr, 37° C.",41.1%
same,Residual rate,"pH7.0, 1 hr, 37° C.",57.8%
same,Production rate of Alvocidib,"pH7.0, 2 hr, 37° C.",65.3%
same,Residual rate,"pH7.0, 2 hr, 37° C.",33.5%
same,Production rate of Alvocidib,"pH7.0, 3 hr, 37° C.",77.1%
same,Residual rate,"pH7.0, 3 hr, 37° C.",21.0%
same,Production rate of Alvocidib,"pH7.4, 0 hr, 37° C.",0.4%
same,Residual rate,"pH7.4, 0 hr, 37° C.",98.5%
same,Conversion to Alvocidib at pH 7.4,"pH 7.4, 37° C., up to 3 hours",rapidly converted to Alvocidib
same,Production rate of Alvocidib,"pH7.4, 0.5 hr, 37° C.",44.9%
same,Residual rate,"pH7.4, 0.5 hr, 37° C.",53.8%
same,Production rate of Alvocidib,"pH7.4, 1 hr, 37° C.",69.3%
same,Residual rate,"pH7.4, 1 hr, 37° C.",29.3%
same,Production rate of Alvocidib,"pH7.4, 2 hr, 37° C.",87.6%
same,Residual rate,"pH7.4, 2 hr, 37° C.",11.3%
same,Production rate of Alvocidib,"pH7.4, 3 hr, 37° C.",91.4%
same,Residual rate,"pH7.4, 3 hr, 37° C.",6.9%

# Reference: patent US12617779B2, “Self degradation-type CDK9 inhibitor prodrug and liposome encapsulating same” (Sumitomo Pharma Co., Ltd., priority 2021, dated 2026)
